Square brackets hold non-standard residues; d marks the D form. Peptide text beside a SMILES is read from it. * marks the point of attachment. Sta = CC(C)C[C@H](N)[C@@H](O)CC(=O)O; Isovaleryl = CC(C)CC(=O)*
Tests used:
[1] = test system: enzyme preparation NAPS-1 (protease PFUS); assay: Effects of various reagents on enzyme preparation NAPS-1; type: biochemical, Pyrococcus furiosus; conditions: for effect of reagent on activity of NAPS-1, in words: 37° C., 30 minutes, 1 mM reagent; for enzyme activity of NAPS-1 after treatment with reagent, compared with control (no reagent): treated at 37° C. for 30 minutes, reagent final concentration 1 mM, control 100%
Procedure: (§1) In addition, the enzyme activity of the enzyme preparations NP-1, PT-1, NAPS-1 and NAPS-LS can be photometrically measured using Suc-Ala-Ala-Pro-Phe-p-NA (SEQ ID NO:44) (manufactured by Sigma) as a substrate. That is, an enzyme preparation to be detected for the enzyme activity was appropriately diluted, to 50 μl of the solution was added 50 μl of a 0.1M potassium phosphate buffer (pH 7.0) containing Suc-Ala-Ala-Pro-Phe-p-NA (SEQ ID NO:44) (Suc-Ala-Ala-Pro-Phe-p-NA(SEQ ID NO:44) solution), followed by incubating at 95° C. for 30 minutes. After the reaction was stopped by ice-cooling, the absorbance at 405 nm was measured to quantitate an amount of the generated p-nitroaniline, and the resulting value was compared with that when incubating without the addition of the enzyme preparation, to investigate the enzyme activity. Upon this, a 0.2 mM solution of Suc-Ala-Ala-Pro-Phe-p-NA (SEQ ID NO:44) was used for the enzyme preparations NP-1 and PT-1 and a 1 mM solution was used for the enzyme preparations NAPS-1 and NAPS-1S.
(§2) The effects of various reagents on the enzyme preparations TCES and NAPS-1 obtained by the present invention were investigated. That is, the above enzyme preparations were treated at 37° C. for 30 minutes in the presence of the various reagents at the final concentration of 1 mM, and an aliquot thereof was taken to determine the enzyme activity by the method described in the above (2) to compare with that (control) when no reagent was added.

[2] = test system: enzyme preparation TCES (protease TCES); assay: Effects of various reagents on enzyme preparation TCES; type: biochemical, Thermococcus celer; conditions: for effect of reagent on activity of TCES, in words: 37° C., 30 minutes, 1 mM reagent; for enzyme activity of TCES after treatment with reagent, compared with control (no reagent): treated at 37° C. for 30 minutes, reagent final concentration 1 mM, control 100%
Procedure: (§3) The enzyme activity of the enzyme preparation TC-3 obtained in the present invention can be measured using as a substrate Suc-Leu-Leu-Val-Tyr-MCA (SEQ ID NO:43) (manufactured by Peptide Laboratory). That is, the enzyme preparation to be detected for the enzyme activity is appropriately diluted, to 20 μl of the solution is added 80 μl of a 0.1M sodium phosphate buffer (pH 7.0) containing 62.5 μM Suc-Leu-Leu-Val-Tyr-MCA (SEQ ID NO:43), followed by incubating at 75° C. for 30 minutes. After the reaction is stopped by the addition of 20 μl of 30% acetic acid, the fluorescent intensity is measured at the excitation wavelength of 355 nm and the fluorescence wavelength of 460 nm to quantitate an amount of the generated 7-amino-4-methylcoumarin, and the resulting value is compared with that obtained when incubating without the addition of the enzyme preparation, to investigate the enzyme activity.
as §2

Suc-Ala-Ala-Pro-Phe-p-NA = Suc-Ala-Ala-Pro-Phe-p-NA hydrolyzing activity (absorbance at 405 nm); type: biochemical; conditions: pH 7.0 and 95° C., 30 minutes
Procedure: as §1, with “Upon this, a 0.2 mM solution of Suc-Ala-Ala-Pro-Phe-p-NA (SEQ ID NO:44) was used for the enzyme preparations NP-1 and PT-1 and a 1 mM solution was used for the enzyme preparations NAPS-1 and NAPS-1S.” left out
(§4) The activity of the enzyme preparations obtained in the present invention on the synthetic peptide substrates is confirmed by a method for measuring the enzyme activity described in the above (2). […] In addition, the activity of the enzyme preparations obtained in the present invention on gelatin can be detected by confirming the degradation of gelatin by an enzyme on the SDS-polyacrylamide gel. […]

Suc-Leu-Leu-Val-Tyr-MCA = Suc-Leu-Leu-Val-Tyr-MCA hydrolyzing activity (fluorescence); type: biochemical; conditions: pH 7.0 and 75° C., 30 minutes
Procedure: as §3, §4

gelatin = assay: Gelatin degradation on gelatin-containing SDS-polyacrylamide gel; type: biochemical; conditions: gel with 0.05% gelatin, pH 7.0, 95° C., 3 hours
From the text: The activity of the enzyme preparations obtained in the present invention on the synthetic peptide substrates is confirmed by a method for measuring the enzyme activity described in the above (2). That is, the enzyme preparation TC-3 obtained in the present invention has the Suc-Leu-Leu-Val-Tyr-MCA (SEQ ID NO:43) hydrlyzing activity, and the enzyme preparations NP-1, PT-1, NAPS-1 and NAPS-1A have the Suc-Ala-Ala-Pro-Phe-p-NA (SEQ ID NO:44) hydrlyzing activity, respectively. […] In addition, the activity of the enzyme preparations obtained in the present invention on gelatin can be detected by confirming the degradation of gelatin by an enzyme on the SDS-polyacrylamide gel. That is, the enzyme preparation to be detected for the enzyme activity was appropriately diluted, to 10 μl of the sample solution was added 2.5 μl of a sample buffer (50 mM Tris-HCl, pH 7.5, 5% SDS, 5% 2-mercaptoethanol, 0.005% Bromophenol Blue. 50% glycerol), followed by treatment at 100° C. for 5 minutes and electrophoresis using 0.1% SDS-10% polyacrylamide gel containing 0.05% gelatin. […] The presence of the protease activity was detected by the fact that gelatin is hydrolyzed by a protease into peptides which are diffused out of the gel and, consequently, the relevant portion of the gel was not stained with Coomassie Brilliant Blue.

casein = assay: Casein degradation on casein-containing SDS-polyacrylamide gel; type: biochemical; conditions: gel with 0.05% casein, 95° C.
[3] = Thermostability of enzyme preparation (residual activity after heat-treatment); type: physicochemical; conditions: 80° C., 20 mM Tris-HCl pH 7.5, 3 hours
Procedure: The thermostability of the enzyme preparation TC-3 obtained by the present invention was investigated. That is, the enzyme preparation was incubated at 80° C. in 20 mM Tris-HCl, pH 7.5 for various periods of time, an appropriate amount thereof was taken to measure the enzyme activity by the method shown in the above (2), and the activity was compared with that when not heat-treated.
In addition, the thermostability of the enzyme preparation NP-1 obtained in the present invention was investigated. That is, the enzyme preparation was incubated at 95° C. in 20 mM Tris-HCl, pH 7.5 for various periods of time, an appropriate aliquot was taken to determine the enzyme activity by the method shown in the above (2), and the enzyme activity was compared with that when not heat-treated. […] This is considered to be because a protease produced as a precursor causes the self-catalytic activation during the heat-treatment.
In addition, the above enzyme preparation NP-1 activated by the heat-treatment was investigated for the thermostability. That is, the enzyme preparation NP-1 was activated by the heat-treatment at 95° C. for 30 minutes, incubated at 95° C. for various periods of time, and the activity was determined as described above to compare with that when not heat-treated. […]

Molecule: CC(C)C[C@H](NC(=O)[C@@H](NC(=O)N[C@@H](Cc1ccccc1)C(=O)O)[C@@H]1CCN=C(N)N1)C(=O)N[C@H](C=O)Cc1ccccc1 [Chymostatin]
- effect of reagent on activity of NAPS-1, in words [1]: remarkably decreased activity
- enzyme activity of NAPS-1 after treatment with reagent, compared with control (no reagent) [1]: 6.6%
- effect of reagent on activity of TCES, in words [2]: remarkably decreased activity
- enzyme activity of TCES after treatment with reagent, compared with control (no reagent) [2]: 0%

Molecule: O=C(O)CN(CCN(CC(=O)O)CC(=O)O)CC(=O)O [EDTA]
- effect of reagent on activity of NAPS-1, in words [1]: the decrease in the activity was observed
- enzyme activity of NAPS-1 after treatment with reagent, compared with control (no reagent) [1]: 36.1%
- enzyme activity of TCES after treatment with reagent, compared with control (no reagent) [2]: 103.5%

Molecule: CC(=O)N[C@@H](CC(C)C)C(=O)N[C@@H](CC(C)C)C(=O)N[C@H](C=O)CCCNC(=N)N [Leupeptin]
- enzyme activity of NAPS-1 after treatment with reagent, compared with control (no reagent) [1]: 89.3%
- enzyme activity of TCES after treatment with reagent, compared with control (no reagent) [2]: 104.5%

Molecule: CCN1C(=O)C=CC1=O [N-ethylmaleimide]
- enzyme activity of NAPS-1 after treatment with reagent, compared with control (no reagent) [1]: 102.6%
- enzyme activity of TCES after treatment with reagent, compared with control (no reagent) [2]: 82.6%

Molecule: O=S(=O)(F)Cc1ccccc1 [PMSF, phenylmethanesulfonyl fluoride]
- effect of reagent on activity of NAPS-1, in words [1]: remarkably decreased activity
- enzyme activity of NAPS-1 after treatment with reagent, compared with control (no reagent) [1]: 0.1%
- effect of reagent on activity of TCES, in words [2]: remarkably decreased activity
- enzyme activity of TCES after treatment with reagent, compared with control (no reagent) [2]: 8.1%

Molecule: CC(C)CC(=O)N[C@H](C(=O)N[C@H](C(=O)N[C@@H](CC(C)C)[C@@H](O)CC(=O)N[C@@H](C)C(=O)N[C@@H](CC(C)C)[C@@H](O)CC(=O)O)C(C)C)C(C)C [Pepstatin] (Isovaleryl-VV[Sta]A[Sta]-OH)
- enzyme activity of NAPS-1 after treatment with reagent, compared with control (no reagent) [1]: 100.7%
- enzyme activity of TCES after treatment with reagent, compared with control (no reagent) [2]: 105.2%

B1: TC-3: crude enzyme preparation of protease TCES (Thermococcus celer) obtained from Bacillus subtilis DB104/pSTC3 (protein)
chain: MKRLGAVVLALVLVGLLAGTALAAPVKPVVRNNAVQQKNYGLLTPGLFKKVQRMNWNQEVDTVIMFGSYGDRDRAVKVLRLMGAQVKYSYKIIPAVAVKIKARDLLLIAGMIDTGYFGNTRVSGIKFIQEDYKVQVDDATSVSQIGADTVWNSLGYDGSGVVVAIVDTGIDANHPDLKGKVIGWYDAVNGRSTPYDDQGHGTHVAGIVAGTGSVNSQYIGVAPGAKLVGVKVLGADGSGSVSTIIAGVDWVVQNKDKYGIRVINLSLGSSQSSDGTDSLSQAVNNAWDAGIVVCVAAGNSGPNTYTVGSPAAASKVITVGAVDSNDNIASFSSRGPTADGRLKPEVVAPGVDIIAPRASGTSMGTPINDYYTKASGTSMATPHVSGVGALILQAHPSWTPDKVKTALIETADIVAPKEIADIAYGAGRVNVYKAIKYDDYAKLTFTGSVADKGSATHTFDVSGATFVTATLYWDTGSSDIDLYLYDPNGNEVDYSYTAYYGFEKVGYYNPTAGTWTVKVVSYKGAANYQVDVVSDGSLSQSGGGNPNPNPNPNPTPTTDTQTFTGSVNDYWDTSDTFTMNVNSGATKITGDLTFDTSYNDLDLYLYDPNGNLVDRSTSSNSYEHVEYANPAPGTWTFLVYAYSTYGWADYQLKAVVYYG
- Suc-Ala-Ala-Pro-Phe-p-NA hydrolyzing activity (Suc-Ala-Ala-Pro-Phe-p-NA): the activity to degrade the substrate was recognized
- Suc-Leu-Leu-Val-Tyr-MCA hydrolyzing activity (Suc-Leu-Leu-Val-Tyr-MCA): had the Suc-Leu-Leu-Val-Tyr-MCA (SEQ ID NO:43) hydrolyzing activity
- gelatin hydrolyzing activity (gelatin): had the gelatin hydrolyzing activity
- casein hydrolyzing activity (gel) (casein): had the casein hydrolyzing activity
- residual activity after heat-treatment [3]: not less than 90%

Reference: US7314744B2, “Hyperthermostable protease gene” (Takara Bio Inc., priority 1995, dated 2008)
